Measured values as given in patent publication US20260224708A1, “CONJUGATE COMPOUNDS AND COMPOSITIONS” (REZUBIO PHARMACEUTICALS CO., LTD, priority 2023, published 2026).
Where a name gives a salt, the structure may show the parent alone.

Legend:
[1] = Pharmacokinetics in mice, IV and PO; assay type: in vivo; conditions: mouse, plasma, male ICR (CD-1) mice
Procedure: Male ICR (CD-1) mice at around 4-6 weeks with body weight of around 25 grams (n=3) were purchased from VT-River (Zhejiang, China). After 1-week acclimation, animals were dosed with exemplary compounds intravenously at 1 mpk or orally at 10 mpk (0.5% methylcellulose in PBS as vehicle for both routes of administration). Blood samples (30 μL) were collected via saphenous vein puncture at 5 (IV only), 15, 30, 60, 120, 240, 480, and 1440 min post dose. The blood samples were saved in 0.5 M K2EDTA coated tubes and centrifuged at 4,600 rpm at 4° C. for 5 min. Plasma samples were collected and stored in −80° C. till PK analysis.
Take 10 μL of K2EDTA-treated plasma samples of CD-1 mice, add 200 μL of precipitation solution with internal standard (5 ng/mL Terfenadine in MeOH/ACN), mix well by vortexing for 1 min at room temperature followed by centrifuge at 4° C. and 4000 rpm for 15 min. Save the supernatant as injection for LC-MS/MS quantification of exemplary compounds in plasma samples of mice.
Establish a standard curve before and after each analytical batch, accompanied by quality controls of low, medium, and high concentrations. The number of quality control samples is not less than 6 and should be equal to or more than the number of samples of each batch, and interspersed in sample measurement. Standard curve and quality control samples of each batch must meet the acceptance criteria.

GPR40 = molecular target: T1, GPR40 (Homo sapiens, UniProt O14842); assay: IP1 accumulation assay in HEK293 cells stably expressing GPR40; assay type: cell-based
T1 construct: expressed in transfected cells
T1 sequence (O14842 whole entry): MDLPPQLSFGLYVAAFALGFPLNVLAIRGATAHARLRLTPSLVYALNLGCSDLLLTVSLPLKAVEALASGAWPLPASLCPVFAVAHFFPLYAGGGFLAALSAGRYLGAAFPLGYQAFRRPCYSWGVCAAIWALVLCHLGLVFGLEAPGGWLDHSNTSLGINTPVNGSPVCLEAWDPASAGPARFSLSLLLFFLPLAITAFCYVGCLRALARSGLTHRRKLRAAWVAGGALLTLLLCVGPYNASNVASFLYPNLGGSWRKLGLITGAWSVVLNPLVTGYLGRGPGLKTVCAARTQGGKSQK
Procedure: IP1 accumulation assay was used to evaluate the potency of compounds. HEK293 cells stably expressing GPR40 were cultured in 5% CO2 incubator (ThermoFisher) in maintenance media (Dulbecco's modified Eagle's medium with 4.5 g/L of glucose, 10% fetal bovine serum, 100 μg/mL Hygromycin, and Penicillin (100 U/mL)/Streptomycin (100 μg/mL)) till 100% confluency. Cells were harvested freshly, spun down at 300×g for 5 min, and resuspended in pre-warmed 1×stimulant buffer from Cisbio IP-One HTRF Detection kit (Cisbio). Cell density was adjusted to 2.0×10^6 cells/mL. DMSO was used as blank control and AMG-1638 (CAS #: 1142214-62-7) as positive control. Compounds were prepared at 10 mM in DMSO and 5 nL of 3×serially diluted compounds (10 concentrations) were added to each well of the 384-LDV assay plate (Corning) by using ECHO 550 (Labcyte). Five μL of cells in suspension were transferred into each well by using Multidrop Combi Reagent Dispenser (ThermoFisher). Assay plate was then sealed and incubated at 37° C. for 2 hours. IP-d2 reagent and anti-IP1 reagent were prepared following the manual (Cisbio). Five μL of IP1-d2 and then 5 μL of anti-IP1 antibody was added to each well sequentially. Assay plate was incubated at room temperature for 60 min and then read at 665 nm/615 nm on an Envision plate reader (PerkinElmer). […] Dose curve was fitted and EC50 of each compound was calculated by using XLFit.

SMILES	clearance ([1]; 1 mg/kg, IV 1 mpk) [mL/min/kg]	also measured
COc1ccc(C(=O)N(CC(C)(C)CCCCCCCCCCCCCCCCCCCC(=O)NCCCN(CC(=O)O)CC(=O)O)c2cccc(C)n2)c(N2CCC(COc3cc([C@@H](CC(=O)O)C4CC4)ccn3)CC2)c1 [Example 13]	0.14	
COc1ccc(C(=O)N(CC(C)(C)CCCCCCCCCCCCCCCCCCCC(=O)NCCC[N+](C)(CC(=O)[O-])CC(=O)O)c2cccc(C)n2)c(N2CCC(COc3cc([C@@H](CC(=O)O)C4CC4)ccn3)CC2)c1 (stereo partly drawn) [Example 14]	0.2	
COc1ccc(C(=O)N(CC(C)(C)CCCCCCCCCCCCCCCCCC(=O)NCCC[N+]23CCN(CC2)CC3)c2cccc(C)n2)c(N2CCC(COc3cc([C@@H](CC(=O)O)C4CC4)ccn3)CC2)c1 [Example 18, (S)-1-(3-(20-(2-(4-(((4-(2-carboxy-1-cyclopropylethyl)pyridin-2-yl)oxy)methyl)piperidin-1-yl)-4-methoxy-N-(6-methylpyridin-2-yl)benzamido)-19,19-dimethylicosanamido)propyl)-1,4-diazabicyclo[2.2.2]octan-1-ium TFA salt]	0.32	
COc1ccc(C(=O)N(CC(C)(C)CCCCCCCCCCCCCCCCCC(=O)NCCC[N+]23CC[N+](C)(CC2)CC3)c2cccc(C)n2)c(N2CCC(COc3cc([C@@H](CC(=O)O)C4CC4)ccn3)CC2)c1 [Example 19]	0.43	
COc1ccc(C(=O)N(CC(C)(C)CCCCCCCCCCCCCCCCCCCCCC[N+]23CCN(CC2)CC3)c2cccc(C)n2)c(N2CCC(COc3cc([C@@H](CC(=O)O)C4CC4)ccn3)CC2)c1 [Example 21, (S)-1-(24-(2-(4-(((4-(2-carboxy-1-cyclopropylethyl)pyridin-2-yl)oxy)methyl)piperidin-1-yl)-4-methoxy-N-(6-methylpyridin-2-yl)benzamido)-23,23-dimethyltetracosyl)-1,4-diazabicyclo[2.2.2]octan-1-ium]	0.67	
COc1ccc(C(=O)N(CC(C)(C)CCn2cc(CCCCCCCCCCCCCCCCCC(=O)NCCC[N+]34CCN(CC3)CC4)nn2)c2cccc(C)n2)c(N2CCC(COc3cc([C@@H](CC(=O)O)C4CC4)ccn3)CC2)c1 [Example 34]		EC50 (GPR40): 0.32 nM

Now from value to compound, other results behind:

clearance ([1]; 1 mg/kg, IV 1 mpk) [mL/min/kg]	SMILES	also measured
0.22	COc1ccc(C(=O)N(CC(C)(C)CCCCCCCCCCCCCCCCCCCC(=O)NCC[N+](C)(CC(=O)NCCN)CC(=O)NCCN)c2cccc(C)n2)c(N2CCC(COc3cc([C@@H](CC(=O)O)C4CC4)ccn3)CC2)c1 [Example 4]	
0.15	COc1ccc(C(=O)N(CC(C)(C)CCCCCCCCCCCCCCCCCC(=O)NCCC[N+](C)(CC(=O)NCCN)CC(=O)NCCN)c2cccc(C)n2)c(N2CCC(COc3cc([C@@H](CC(=O)O)C4CC4)ccn3)CC2)c1 [Example 12]	
0.1	COc1ccc(C(=O)N(CC(C)(C)CCCCCCCCCCCCCCCCCC(=O)NCC[N+](C)(CCCC(=O)NCCN)CCCC(=O)NCCN)c2cccc(C)n2)c(N2CCC(COc3cc([C@@H](CC(=O)O)C4CC4)ccn3)CC2)c1 [Example 17]	EC50 (GPR40): 0.11 nM; AUC ([1]; 1 mg/kg, IV 1 mpk): 104 µM·h; half-life ([1]; 1 mg/kg, IV 1 mpk): 10.5 h; Cmax ([1]; 10 mg/kg, PO 10 mpk): 238 nM; Tmax ([1]; 10 mg/kg, PO 10 mpk): 6.7 h; bioavailability ([1]; 10 mg/kg, PO 10 mpk, oral bioavailability): 0.41%
